From patent US20100119609A1, “METHODS, COMPOSITIONS, AND FORMULATIONS FOR THE TREATMENT OF THYROID EYE DISEASE” (priority 2006, published 2010)

Columns and labels:
[1] = compared with albuterol 5, a short acting hydrophilic beta agonist; cited from earlier work
[2] = tested on: cultured human adipocytes; test: In vitro lipolysis assay (glycerol release) in cultured adipocytes; assay type: cell-based; settings: for increase in lipolysis relative to negative control: glycerol in Assay Buffer
Description: In the in vitro lipolysis assay, glycerol was detected in cell culture media via a spectrophotometric measurement after chemical oxidation with hydrogen peroxide. Glycerol was measured over a three hour time period. Levels of lipolysis in cultured human adipocytes were tested after exposure to a beta agonist alone, a glucocorticosteroid alone, or the combination of the two for one or more preincubation periods as described in more detail below.
Human subcutaneous adipocytes were used in the lipolysis assay. Adipose tissue was harvested from liposuction or lipectomy and pre-adipocytes were isolated as follows. Briefly, fat tissue was minced and incubated at 37° C. in Krebs-Ringer bicarbonate buffer containing 1% bovine serum albumin and 0.1% collagenase in an oxygen-rich shaking chamber (5% CO2; 75 strokes/min) for 1 hour. The suspension was filtered through a 400 tim nylon mesh and centrifuged for 1 mm at 100 g. The pre-adipocytes in the […] were washed twice with and then plated in 96 well plates at a density of cells/well. The pre-adipocytes were cultured in maintenance medium for seven days as they differentiated into adipocytes.
At −21 hours before the lipolysis assay, medium was removed from each well and replaced with 75 μl of Maintenance Medium containing appropriate drug or DMSO (vehicle) concentrations (see Experimental Design section below). Each test drug or control treatment was applied to 8 wells/group (12 treatment groups per 96-well plate). At −3 hours prior to the lipolysis assay, each well was washed two times with Wash Buffer (200 μl/wash), filled with test or control solutions made up in Assay Buffer (75 μl/well), and then incubated for three hours, i.e., until measurement of glycerol content in the Assay Buffer. For some groups, a drug was only added for the three hour incubation period (see Experimental and Control Groups Below).
The glycerol content of the Assay Buffer from each well following the incubation was used as an index for lipolysis, where an increase in glycerol indicated lipolysis. Glycerol levels were assayed colorimetrically via a commercial glycerol assay kit (Randox Laboratory, United Kingdom) and quantified by comparison to a glycerol serial dilution standard curve (3 μM-200 μM). Glycerol concentrations for each well were normalized to cell density.
In each of the following control or experimental groups n=8 corresponding to the glycerol measurements for 8 wells from a 96-well cell culture plate.

[3] = 18 hour incubation, Salmeterol 10^−6 M or 10^−8 M, Budesonide 10^−6 M, Isoproterenol 10^−6 M
[4] = three hour incubation, isoproterenol 10^−6 M

| Molecule | lipophilicity relative to albuterol [1] | effect on lipolysis in cultured adipocytes [2, 3] | effect on lipolysis in cultured adipocytes ([2]; three hour incubation) | increase in lipolysis relative to negative control [2, 4] | lipolysis compared with isoproterenol (positive control) [2, 4] |
| --- | --- | --- | --- | --- | --- |
| OCc1cc(C(O)CNCCCCCCOCCCCc2ccccc2)ccc1O (racemic) [Salmeterol, ±2-(hydroxymethyl)-4-[1-hydroxy-2-[6-(4-phenylbutoxy)hexylamino]ethyl]-phenol] | at least 10,000 times |  |  |  |  |
| budesonide |  | slight suppression of lipolysis | dose-dependent induction of lipolysis | up to 1.5 fold | lower than that observed for Isoproterenol |
| CC(C)NCC(O)c1ccc(O)c(O)c1 (stereo not shown) [Isoproterenol, isoproterenol] |  | decreased lipolysis |  | about 2.5 fold |  |
